The text below walks through data of patent US12637428B2, “Isoquinoline derivatives as SIK2 inhibitors” (Cancer Research Technology Limited, priority 2019, dated 2026).

Type in all cases: biochemical
One test addresses T1, SIK2 (Homo sapiens, UniProt Q9H0K1).
T1 construct: purchased Life Technologies
Put plainly: SIK2 kinase assay, IMAP fluorescence polarization. Particulars: 50 or 100 μM ATP, average. The procedure:
(§1) SIK2, SIK1, SIK3, Abl, Src and EPHA2 Kinase Assays
(§2) SIK2, SIK1, SIK3, Abl, Src and EPHA2 assays were performed using an IMAP fluorescence polarization assay format (Molecular Devices Inc.). 0.6-13 nM of each kinase (Life Technologies) was incubated for 60 min at room temperature with 100 nM of either FAM-Abltide, FAM-Srctide or FAM-HDAC protein derived peptide (synthesized by Alta Biosciences, Birmingham UK). Assays were carried out in the presence of 50 or 100 μM ATP in either 20 mM Tris buffer (pH 7.2) containing 4 mM MgCl2, 0.2% BSA and 2 mM DTT (SIK2, SIK1, SIK3, Abl, Src); or 20 mM Tris buffer (pH 8.5) containing 20 mM MgCl2, 0.5% BSA, 0.2% Triton and 5 mM DTT (EPHA2). Typically, dose response analyses were performed over concentration ranges from 0.00005-1 μM. Reactions were stopped by adding 2 assay volumes of 0.25% (v/v) IMAP binding reagent in either an 85:15 ratio (SIK2, SIK1, SIK3, Abl, EPHA2) or 30:70 ratio (Src) of IMAP binding buffers A and B (Molecular Devices). After incubation to allow the detection reagents to bind to the phosphorylated peptide, fluorescence polarization was measured on a Tecan Infinite plate reader at excitation (470 nm) and emission (530 nm) wavelengths. Inhibition was calculated using no inhibitor and no enzyme controls as 0 and 100% inhibition, respectively.
(§3) Table 3 provides details of the inhibitory constant (nM) of compounds of the invention at SIK1, SIK2 and SIK3 and other kinases.

The target in a further test is T2, Src (Homo sapiens, UniProt P12931).
T2 construct: purchased Life Technologies
Put plainly: Src kinase assay, IMAP fluorescence polarization. Particulars: 50 or 100 μM ATP, average. The procedure: as §1, §2, §3
For orientation: Polarisation of emitted light reports the rotation of a fluorescent probe.

The target in the next test is T3, SIK3 (Homo sapiens, UniProt Q9Y2K2).
T3 construct: purchased Life Technologies
T3 sequence (Q9Y2K2 whole entry): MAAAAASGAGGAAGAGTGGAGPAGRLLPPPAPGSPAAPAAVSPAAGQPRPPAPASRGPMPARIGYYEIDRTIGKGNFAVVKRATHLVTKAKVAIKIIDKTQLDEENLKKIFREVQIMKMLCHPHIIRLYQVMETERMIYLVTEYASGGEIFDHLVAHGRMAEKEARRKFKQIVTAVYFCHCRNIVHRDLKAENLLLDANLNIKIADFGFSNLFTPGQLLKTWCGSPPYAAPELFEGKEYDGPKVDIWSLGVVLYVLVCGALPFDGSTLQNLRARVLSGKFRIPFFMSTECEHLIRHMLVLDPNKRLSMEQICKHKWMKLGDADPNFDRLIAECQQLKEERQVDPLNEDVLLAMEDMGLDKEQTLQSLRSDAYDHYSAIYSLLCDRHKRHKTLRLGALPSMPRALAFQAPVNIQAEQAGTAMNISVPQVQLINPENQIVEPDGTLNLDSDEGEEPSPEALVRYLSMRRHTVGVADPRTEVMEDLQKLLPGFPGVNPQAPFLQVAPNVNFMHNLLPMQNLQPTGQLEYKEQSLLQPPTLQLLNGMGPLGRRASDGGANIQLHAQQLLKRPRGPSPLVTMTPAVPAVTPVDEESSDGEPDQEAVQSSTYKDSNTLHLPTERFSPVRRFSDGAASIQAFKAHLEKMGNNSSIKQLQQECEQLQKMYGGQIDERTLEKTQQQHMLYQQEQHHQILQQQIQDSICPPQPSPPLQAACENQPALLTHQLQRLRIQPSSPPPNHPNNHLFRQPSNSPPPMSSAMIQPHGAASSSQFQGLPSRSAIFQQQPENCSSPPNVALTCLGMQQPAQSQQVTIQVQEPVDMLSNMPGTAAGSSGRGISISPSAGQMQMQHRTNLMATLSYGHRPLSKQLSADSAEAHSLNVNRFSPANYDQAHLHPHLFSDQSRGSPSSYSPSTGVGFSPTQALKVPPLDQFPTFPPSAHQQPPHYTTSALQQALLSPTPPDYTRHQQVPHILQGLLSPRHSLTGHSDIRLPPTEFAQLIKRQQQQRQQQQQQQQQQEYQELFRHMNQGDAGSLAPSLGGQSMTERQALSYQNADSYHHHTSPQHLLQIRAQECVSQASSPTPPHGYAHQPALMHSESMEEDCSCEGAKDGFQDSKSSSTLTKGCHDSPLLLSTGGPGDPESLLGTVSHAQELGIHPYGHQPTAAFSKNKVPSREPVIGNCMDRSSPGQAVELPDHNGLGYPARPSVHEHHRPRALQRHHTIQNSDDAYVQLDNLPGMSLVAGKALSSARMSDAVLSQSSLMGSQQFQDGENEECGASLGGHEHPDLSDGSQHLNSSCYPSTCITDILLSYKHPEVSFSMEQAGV
Put plainly: SIK3 kinase assay, IMAP fluorescence polarization. Particulars: 50 or 100 μM ATP, average. The method, then:
as §1, §2, §3

The target in another test is T4, SIK1 (Homo sapiens, UniProt P57059).
T4 construct: purchased Life Technologies
T4 sequence (P57059 whole entry): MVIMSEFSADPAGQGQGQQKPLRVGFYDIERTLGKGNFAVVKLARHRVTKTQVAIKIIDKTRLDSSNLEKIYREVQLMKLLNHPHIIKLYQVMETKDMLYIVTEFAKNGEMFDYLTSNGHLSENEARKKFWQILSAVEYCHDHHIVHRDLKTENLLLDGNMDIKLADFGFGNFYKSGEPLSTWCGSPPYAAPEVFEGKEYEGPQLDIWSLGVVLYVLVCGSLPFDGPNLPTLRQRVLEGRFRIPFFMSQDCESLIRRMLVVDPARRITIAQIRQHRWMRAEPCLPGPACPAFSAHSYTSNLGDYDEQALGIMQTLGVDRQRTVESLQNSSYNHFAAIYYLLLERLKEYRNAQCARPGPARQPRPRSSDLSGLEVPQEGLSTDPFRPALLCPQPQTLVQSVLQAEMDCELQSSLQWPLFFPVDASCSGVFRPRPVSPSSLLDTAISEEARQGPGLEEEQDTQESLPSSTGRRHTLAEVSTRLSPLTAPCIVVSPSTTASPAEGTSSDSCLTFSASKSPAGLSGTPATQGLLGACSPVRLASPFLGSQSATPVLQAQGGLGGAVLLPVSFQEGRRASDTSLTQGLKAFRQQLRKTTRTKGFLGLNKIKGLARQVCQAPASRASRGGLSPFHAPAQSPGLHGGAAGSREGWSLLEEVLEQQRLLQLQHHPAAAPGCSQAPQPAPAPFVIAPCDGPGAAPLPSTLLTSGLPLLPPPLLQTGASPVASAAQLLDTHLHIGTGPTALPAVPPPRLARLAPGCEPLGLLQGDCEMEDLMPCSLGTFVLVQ
Put plainly: SIK1 kinase assay, IMAP fluorescence polarization. Conditions: 50 or 100 μM ATP, average. The procedure:
as §1, §2, §3

Another test addresses T5, Abl (Homo sapiens, UniProt P00519).
T5 construct: purchased Life Technologies
Put plainly: Abl kinase assay, IMAP fluorescence polarization. Particulars: 50 or 100 μM ATP, average. The method, then:
as §1, §2, §3

Another test addresses T6, EPHA2 (Homo sapiens, UniProt P29317).
T6 construct: purchased Life Technologies
Put plainly: EPHA2 kinase assay, IMAP fluorescence polarization. Conditions: 50 or 100 μM ATP, Tris pH 8.5, average. The procedure:
as §1, §2, §3

T1 sequence (Q9H0K1 whole entry): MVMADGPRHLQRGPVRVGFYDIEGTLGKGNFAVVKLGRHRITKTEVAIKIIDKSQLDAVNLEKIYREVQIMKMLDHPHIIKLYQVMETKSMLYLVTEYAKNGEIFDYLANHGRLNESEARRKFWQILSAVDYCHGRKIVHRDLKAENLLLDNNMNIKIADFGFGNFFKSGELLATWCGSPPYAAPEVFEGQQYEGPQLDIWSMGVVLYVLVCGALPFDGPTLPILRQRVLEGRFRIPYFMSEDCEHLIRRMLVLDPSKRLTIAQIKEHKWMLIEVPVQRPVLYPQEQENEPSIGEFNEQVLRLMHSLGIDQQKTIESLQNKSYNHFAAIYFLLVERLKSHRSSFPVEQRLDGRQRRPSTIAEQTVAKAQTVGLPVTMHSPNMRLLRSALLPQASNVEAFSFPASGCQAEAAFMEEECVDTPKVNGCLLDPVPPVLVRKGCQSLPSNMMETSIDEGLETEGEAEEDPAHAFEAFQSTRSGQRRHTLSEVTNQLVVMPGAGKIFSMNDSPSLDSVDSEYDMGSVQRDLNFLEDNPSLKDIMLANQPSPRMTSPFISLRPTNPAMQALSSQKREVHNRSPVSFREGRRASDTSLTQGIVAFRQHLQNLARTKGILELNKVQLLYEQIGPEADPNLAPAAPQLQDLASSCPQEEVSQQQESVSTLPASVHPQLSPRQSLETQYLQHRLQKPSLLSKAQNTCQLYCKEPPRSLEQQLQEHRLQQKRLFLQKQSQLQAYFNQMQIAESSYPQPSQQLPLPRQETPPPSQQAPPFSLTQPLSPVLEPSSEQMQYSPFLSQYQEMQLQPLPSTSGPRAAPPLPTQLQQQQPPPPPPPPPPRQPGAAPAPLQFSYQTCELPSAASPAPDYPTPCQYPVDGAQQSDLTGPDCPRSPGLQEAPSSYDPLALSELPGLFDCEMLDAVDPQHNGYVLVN
T6 sequence (P29317 24-976): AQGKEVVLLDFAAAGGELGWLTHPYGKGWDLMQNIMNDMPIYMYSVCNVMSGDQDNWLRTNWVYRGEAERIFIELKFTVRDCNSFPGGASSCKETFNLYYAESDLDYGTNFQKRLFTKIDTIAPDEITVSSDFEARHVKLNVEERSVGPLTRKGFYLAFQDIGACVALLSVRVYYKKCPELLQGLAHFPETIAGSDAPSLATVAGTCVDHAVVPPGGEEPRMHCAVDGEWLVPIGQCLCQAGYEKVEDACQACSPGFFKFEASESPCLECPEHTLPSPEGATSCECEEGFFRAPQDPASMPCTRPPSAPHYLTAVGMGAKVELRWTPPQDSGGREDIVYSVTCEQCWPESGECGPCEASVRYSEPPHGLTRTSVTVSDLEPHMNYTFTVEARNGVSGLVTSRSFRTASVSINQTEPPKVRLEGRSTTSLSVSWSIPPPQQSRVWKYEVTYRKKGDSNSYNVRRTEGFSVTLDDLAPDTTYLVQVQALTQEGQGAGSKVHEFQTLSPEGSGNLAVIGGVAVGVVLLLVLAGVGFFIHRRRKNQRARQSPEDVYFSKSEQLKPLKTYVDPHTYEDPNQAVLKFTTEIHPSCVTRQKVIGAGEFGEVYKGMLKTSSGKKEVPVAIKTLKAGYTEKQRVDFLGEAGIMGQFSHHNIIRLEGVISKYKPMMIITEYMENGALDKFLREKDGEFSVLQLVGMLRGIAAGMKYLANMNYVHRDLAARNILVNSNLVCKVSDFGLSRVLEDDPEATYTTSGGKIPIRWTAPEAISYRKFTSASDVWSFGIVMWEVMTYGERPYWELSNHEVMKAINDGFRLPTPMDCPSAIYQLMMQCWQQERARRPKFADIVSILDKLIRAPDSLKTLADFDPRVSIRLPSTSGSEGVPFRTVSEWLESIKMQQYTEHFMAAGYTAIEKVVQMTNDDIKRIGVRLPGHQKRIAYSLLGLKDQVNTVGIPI
T5 sequence (P00519 whole entry): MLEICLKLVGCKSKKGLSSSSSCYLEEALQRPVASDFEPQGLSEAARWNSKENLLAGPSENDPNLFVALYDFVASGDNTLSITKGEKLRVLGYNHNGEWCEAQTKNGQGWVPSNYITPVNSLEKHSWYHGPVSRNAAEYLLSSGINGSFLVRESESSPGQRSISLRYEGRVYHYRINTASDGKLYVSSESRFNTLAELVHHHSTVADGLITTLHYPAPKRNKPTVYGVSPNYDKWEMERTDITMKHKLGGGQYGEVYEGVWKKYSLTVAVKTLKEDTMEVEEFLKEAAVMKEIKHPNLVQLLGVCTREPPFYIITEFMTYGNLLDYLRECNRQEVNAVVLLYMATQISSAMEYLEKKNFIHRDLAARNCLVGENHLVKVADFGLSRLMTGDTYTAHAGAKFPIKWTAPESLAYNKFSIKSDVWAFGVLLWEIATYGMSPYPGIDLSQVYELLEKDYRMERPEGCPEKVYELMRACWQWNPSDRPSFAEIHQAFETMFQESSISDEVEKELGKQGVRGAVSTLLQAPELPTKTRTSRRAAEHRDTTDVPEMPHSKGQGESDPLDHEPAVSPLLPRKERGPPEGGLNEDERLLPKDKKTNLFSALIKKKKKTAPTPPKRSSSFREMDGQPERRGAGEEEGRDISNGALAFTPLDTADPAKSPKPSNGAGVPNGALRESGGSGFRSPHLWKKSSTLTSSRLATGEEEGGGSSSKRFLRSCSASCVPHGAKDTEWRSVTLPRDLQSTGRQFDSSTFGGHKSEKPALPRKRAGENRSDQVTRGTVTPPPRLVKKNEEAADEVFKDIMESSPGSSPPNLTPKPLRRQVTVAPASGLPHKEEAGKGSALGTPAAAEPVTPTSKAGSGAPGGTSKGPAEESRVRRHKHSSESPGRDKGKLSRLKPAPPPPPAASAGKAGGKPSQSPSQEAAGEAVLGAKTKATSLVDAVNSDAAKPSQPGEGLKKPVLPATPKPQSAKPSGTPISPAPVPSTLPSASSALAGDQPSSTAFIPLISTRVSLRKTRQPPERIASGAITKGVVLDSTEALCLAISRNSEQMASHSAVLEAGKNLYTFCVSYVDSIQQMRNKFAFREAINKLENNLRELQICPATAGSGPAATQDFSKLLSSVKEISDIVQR

`Cc1cccc(F)c1-c1cc2cnc(N)cc2c(NC2CCN(C)CC2)c1F` [Example 135, 6-Fluoro-7-(2-fluoro-6-methyl-phenyl)-N5-(1-methyl-4-piperidyl)isoquinoline-3,5-diamine]: the Ki at SIK2 stood at 0.0936 nM; at Src it was 65.3 nM; at SIK3 it was 0.312 nM; at SIK1 it was 0.361 nM; at Abl it was 7.99 nM; on EPHA2 it was 30.7 nM.

Regarding `Cc1cccc(F)c1-c1cc(NC[C@@H]2CCCCN2)c2cc(N)ncc2c1` [Example 14, 7-(2-fluoro-6-methyl-phenyl)-N5-[[(2S)-2-piperidyl]methyl]isoquinoline-3,5-diamine], the Ki amounted to 0.0969 nM at SIK2; 67.8 nM on Src; 2.43 nM at SIK3; 0.601 nM on SIK1; 8.01 nM on Abl; 59.5 nM at EPHA2.

With `Cc1cccc(Cl)c1-c1cc(NC2CN(C)C2)c2ccncc2c1` [Example 67, 7-(2-chloro-6-methyl-phenyl)-N-(1-methylazetidin-3-yl)isoquinolin-5-amine], the Ki at SIK2 was determined as 11.8 nM; at Src it was 249 nM; at SIK3, 27.2 nM; on SIK1, 10.4 nM; on Abl, 92.9 nM; at EPHA2, 50.4 nM.

As for `Cc1cccc(F)c1-c1cc(N2CC[C@@H](O)C2)c2cc(N)ncc2c1` [Example 106, (3R)-1-[3-amino-7-(2-fluoro-6-methyl-phenyl)-5-isoquinolyl]pyrrolidin-3-ol], the Ki is 19.5 nM at SIK2; > 10000 nM at Src; 553 nM at SIK3; 123 nM on SIK1; 28.8 nM at Abl; > 10000 nM at EPHA2.

Regarding `Cc1cccc(F)c1-c1cc(N2CC(N(C)C)C2)c2cc(N)ncc2c1` [Example 79, 5-[3-(dimethylamino)azetidin-1-yl]-7-(2-fluoro-6-methyl-phenyl)isoquinolin-3-amine], the Ki at SIK2 came to 0.101 nM; on Src it was 106 nM; on SIK3, 2.24 nM; on SIK1, 0.747 nM; at Abl, 12.7 nM; at EPHA2, 84.1 nM.

With `Cc1cccc(F)c1-c1cc(N[C@@H]2CCCNC2)c2cc(N)ncc2c1` [Example 25, 7-(2-fluoro-6-methyl-phenyl)-N5-[(3R)-3-piperidyl]isoquinoline-3,5-diamine], the Ki was 0.132 nM on SIK2; > 1000 nM on Src; 1.28 nM at SIK3; 0.546 nM at SIK1; 4.96 nM on Abl; > 1000 nM on EPHA2.

In the case of `Cc1cccc(F)c1-c1cc(NC2CCN(C)CC2)c2cc(N)ncc2n1` [Example 121, 2-(2-Fluoro-6-methyl-phenyl)-N4-(1-methyl-4-piperidyl)-1,7-naphthyridine-4,6-diamine], the Ki on SIK2 is 46 nM; on Src it was > 10000 nM; at SIK3, 488 nM; on SIK1 it was 178 nM; on Abl, > 10000 nM; at EPHA2, 2650 nM.

In the case of `Cc1cccc(F)c1-c1cc(N[C@H]2CCCCNC2)c2cc(N)ncc2c1` [Example 23, N5-[(3S)-azepan-3-yl]-7-(2-fluoro-6-methyl-phenyl)isoquinoline-3,5-diamine], the Ki at SIK2 came out at 0.0488 nM; on Src, 15.9 nM; at SIK3 it was 0.171 nM; at SIK1, 0.287 nM; at Abl, 3.75 nM; on EPHA2, 24.6 nM.

For the molecule `Cc1cccc(F)c1-c1cc(NCC2CCNCC2)c2cc(N)ncc2c1` [Example 8, 7-(2-fluoro-6-methyl-phenyl)-N5-(4-piperidylmethyl)isoquinoline-3,5-diamine], the Ki on SIK2 amounted to 0.108 nM; at Src, 16.5 nM; on SIK3, 1.02 nM; at SIK1 it was 0.546 nM; at Abl it was 1.4 nM; at EPHA2, 5.15 nM.

Turning to `Cc1cccc(F)c1-c1cc(NC2CCN(C)CC2)c2cc(N)ncc2c1` [Example 54, 7-(2-Fluoro-6-methyl-phenyl)-N5-(1-methyl-4-piperidyl)isoquinoline-3,5-diamine], the Ki at SIK2 came to 0.0466 nM; on Src it was 103 nM; on SIK3 it was 0.883 nM; on SIK1, 0.418 nM; on Abl, 16.1 nM; on EPHA2, 195 nM.

Regarding `CNc1cc2c(N3CCC[C@H](N(C)C)C3)cc(-c3c(C)cccc3F)cc2cn1` [Example 83, 5-[(3S)-3-(dimethylamino)-1-piperidyl]-7-(2-fluoro-6-methyl-phenyl)-N-methyl-isoquinolin-3-amine], the Ki was 0.316 nM at SIK2; 97.8 nM at Src; 7.35 nM at SIK3; 0.55 nM at SIK1; 9.38 nM at Abl; > 1000 nM at EPHA2.

As to `CNC[C@H]1CCCN(c2cc(-c3c(C)cccc3F)cc3cnc(N)cc23)C1` [Example 21, 7-(2-fluoro-6-methyl-phenyl)-5-[(3R)-3-(methylamino-methyl)-1-piperidyl]isoquinolin-3-amine], the Ki was found to be 0.274 nM on SIK2; 50.4 nM at Src; 9.36 nM on SIK3; 0.594 nM at SIK1; 10.5 nM at Abl; 41.5 nM on EPHA2.

For `CNC1CN(c2cc(-c3c(C)cccc3F)cc3cnc(N)cc23)C1` [Example 29, 7-(2-Fluoro-6-methyl-phenyl)-5-[3-(methylamino)azetidin-1-yl]isoquinolin-3-amine], the inhibition constant Ki at SIK2 was found to be 0.056 nM; on Src, 97.4 nM; at SIK3, 0.447 nM; at SIK1, 0.381 nM; at Abl, 19.3 nM; on EPHA2 it was 165 nM.

Regarding `Cc1cccc(F)c1-c1cc(NC[C@@H]2CCCCN2C)c2cc(N)ncc2c1` [Example 78, 7-(2-fluoro-6-methyl-phenyl)-N5-[[(2S)-1-methyl-2-piperidyl]methyl]isoq uinoline-3,5-diamine], the inhibition constant Ki at SIK2 worked out at 0.0935 nM; at Src, 43.3 nM; at SIK3, 1.6 nM; on SIK1, 0.433 nM; on Abl, 6.85 nM; on EPHA2 it was 119 nM.

Consider `Cc1cccc(F)c1-c1cc(NCC2CCN(C)CC2)c2cc(N)ncc2c1` [Example 71, 7-(2-fluoro-6-methyl-phenyl)-N5-[(1-methyl-4-piperidyl)methyl] isoquinoline-3,5-diamine], for which the Ki on SIK2 was 0.486 nM; on Src, 149 nM; on SIK3, 5.67 nM; at SIK1, 1.17 nM; on Abl, 15.6 nM; at EPHA2, > 1000 nM.

With `CNC[C@@H]1CCCN(c2cc(-c3c(C)cccc3F)cc3cnc(N)cc23)C1` [Example 22, 7-(2-fluoro-6-methyl-phenyl)-5-[(3S)-3-(methylamino-methyl)-1-piperidyl]isoquinolin-3-amine], the Ki worked out at 0.563 nM at SIK2; 304 nM on Src; 13.6 nM at SIK3; 1.67 nM on SIK1; 46.6 nM at Abl; 227 nM on EPHA2.

On to `Cc1cccc(F)c1-c1cc(N2CCC[C@@H](CN(C)C)C2)c2cc(N)ncc2c1` [Example 61, 5-[(3S)-3-[(dimethylamino)methyl]-1-piperidyl]-7-(2-fluoro-6-methyl-phenyl)isoquinolin-3-amine], for which the Ki on SIK2 came to 1.08 nM; on Src it was 226 nM; at SIK3, 39.5 nM; on SIK1, 3.23 nM; at Abl, 27.7 nM; at EPHA2 it was 199 nM.

As for `Cc1cccc(Cl)c1-c1cc(NC2CCN(C)CC2)c2ncncc2c1` [Example 130, 6-(2-chloro-6-methyl-phenyl)-N-(1-methyl-4-piperidyl)quinazolin-8-amine], the Ki at SIK2 was 2.87 nM; on Src it was 549 nM; at SIK3, 17.2 nM; at SIK1 it was 5.53 nM; at Abl, > 10000 nM; at EPHA2, 85.3 nM.

As for `Cc1cccc(F)c1-c1cc(NC2CCOCC2)c2cc(N)ncc2c1` [Example 110, 7-(2-Fluoro-6-methyl-phenyl)-N5-tetrahydropyran-4-yl-isoquinoline-3,5-diamine], the Ki is 6.97 nM at SIK2; > 10000 nM at Src; 78.1 nM at SIK3; 55.5 nM at SIK1; 56 nM at Abl; > 1000 nM on EPHA2.

Usually Ki stands for the dissociation constant of the complex between target and ligand, obtained from inhibition or displacement.
